Converted amounts (≈) assume the structure as drawn. Like-named read-outs stand apart in the source and are kept apart here.
How the values were obtained:
[1] = test system: Pasteurella multocida 40G; test: MIC, broth-dilution microtiter test (Table VII); assay type: cell-based; conditions: Pasteurella multocida
Method in brief: (§1)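 Broth microdilution, run as a conventional microtiter test, supplied MICs for the gram-positive S. aureus and the Pasteurella isolates. Enterobacter data instead rest on a standard agar-dilution procedure.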

Mycoplasma hyorhinis = test: MIC, broth-dilution microtiter test (Table VII); assay type: cell-based; conditions: M. hyorhinis; broth-dilution microtiter; read-out: MIC
Protocol: (§2) Especially noteworthy is the improved activity against gram-negative bacteria for several derivatives when compared to the activity of OMT. […] The MIC's in Tables V and VI were determined by standard agar-dilution assays. The MIC's in Table VII were obtained using a conventional broth-dilution microtiter test.

Mycoplasma synoviae = test: MIC, broth-dilution microtiter test (Table VII); assay type: cell-based; conditions: Mycoplasmopsis synoviae; M. synoviae; broth-dilution microtiter; read-out: MIC
Protocol: as §2

[2] = test system: Pasteurella multocida 17E; test: MIC, broth-dilution microtiter test (Table VII); assay type: cell-based; conditions: Pasteurella multocida; P. multocida 17E, bovine isolate; broth-dilution microtiter; read-out: MIC
Method in brief: as §1

Streptococcus sp. 80 = test: MIC, broth-dilution microtiter test (Table VII); assay type: cell-based; conditions: Streptococcus sp. 80; broth-dilution microtiter; read-out: MIC
Protocol: as §2

[3] = test system: Pasteurella hemolytica 41D; test: MIC, broth-dilution microtiter test (Table VII); assay type: cell-based; conditions: Pasteurella, P. hemolytica 41D, read-out: MIC
Method in brief: as §1

[4] = test system: Pasteurella hemolytica 23C; test: MIC, broth-dilution microtiter test (Table VII); assay type: cell-based; conditions: Pasteurella, P. hemolytica 23C, read-out: MIC
Method in brief: as §1

[5] = test system: Pasteurella multocida 60A; test: MIC, broth-dilution microtiter test (Table VII); assay type: cell-based; conditions: Pasteurella multocida; P. multocida 60A, avian isolate; broth-dilution microtiter; read-out: MIC
Method in brief: as §1

Staphylococcus aureus = test: MIC, broth-dilution microtiter test (Table VII); assay type: cell-based; conditions: Staphylococcus aureus; S. aureus; broth-dilution microtiter; read-out: MIC
Method in brief: as §1

[6] = test system: Pasteurella hemolytica 22C; test: MIC, broth-dilution microtiter test (Table VII); assay type: cell-based; conditions: Pasteurella, P. hemolytica 22C, read-out: MIC
Method in brief: as §1

Mycoplasma gallisepticum = test: MIC, broth-dilution microtiter test (Table VII); assay type: cell-based; conditions: Mycoplasmoides gallisepticum; M. gallisepticum; broth-dilution microtiter; read-out: MIC
Protocol: as §2

[7] = test system: Pasteurella multocida 68C; test: MIC, broth-dilution microtiter test (Table VII); assay type: cell-based; conditions: Pasteurella multocida; P. multocida 68C; broth-dilution microtiter; read-out: MIC
Method in brief: as §1

[8] = test system: Pasteurella multocida 22A; test: MIC, broth-dilution microtiter test (Table VII); assay type: cell-based; conditions: Pasteurella multocida
Method in brief: as §1

[9] = test system: Streptococcus pyogenes C203; test: ED50 in mice experimentally infected with S. pyogenes C203 (Table VIII); assay type: in vivo
Protocol: The C-23 modified derivatives of OMT of this invention have shown in vivo antimicrobial activity against experimental infections. When two doses of test compound were administered to mice experimentally infected with a gram-positive bacterium, S. pyogenes C203, the activity observed was measured as an ED50 value [effective dose in mg/kg to protect 50% of the test animals: see Warren Wick, et al., J. Bacteriol. 81, 233-235 (1961)].

Serratia marcescens X99 = test: MIC, standard agar-dilution assay (Table VI); assay type: cell-based; conditions: S. marcescens X99, agar dilution, read-out: MIC
Protocol: as §2

Proteus morganii PR15 = test: MIC, standard agar-dilution assay (Table VI); assay type: cell-based; conditions: Morganella morganii
Protocol: as §2

[10] = test system: Pseudomonas aeruginosa Ps18; test: MIC, standard agar-dilution assay (Table VI); assay type: cell-based; conditions: P. aeruginosa Ps18, agar dilution, read-out: MIC
Protocol: as §2

Salmonella typhi 1335 = test: MIC, standard agar-dilution assay (Table VI); assay type: cell-based; conditions: Salmonella enterica
Protocol: as §2

[11] = test system: Pseudomonas aeruginosa X239; test: MIC, standard agar-dilution assay (Table VI); assay type: cell-based; conditions: P. aeruginosa X239, agar dilution, read-out: MIC
Protocol: as §2

Proteus inconstans PR33 = test: MIC, standard agar-dilution assay (Table VI); assay type: cell-based; conditions: Providencia alcalifaciens
Protocol: as §2

Proteus rettgeri PR7 = test: MIC, standard agar-dilution assay (Table VI); assay type: cell-based; conditions: Providencia rettgeri; P. rettgeri PR7; agar dilution; read-out: MIC
Protocol: as §2

[12] = test system: Salmonella heidelberg X514; test: MIC, standard agar-dilution assay (Table VI); assay type: cell-based; conditions: Salmonella enterica
Protocol: as §2

Proteus rettgeri C24 = test: MIC, standard agar-dilution assay (Table VI); assay type: cell-based; conditions: Providencia rettgeri, P. rettgeri C24
Protocol: as §2

[13] = test system: Klebsiella pneumoniae X68; test: MIC, standard agar-dilution assay (Table VI); assay type: cell-based
Protocol: as §2

Escherichia coli N10 = test: MIC, standard agar-dilution assay (Table V); assay type: cell-based; conditions: Escherichia coli, N10
Method in brief: (§3)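 Growth inhibition in liquid medium, in a routine microtiter broth-dilution series, gave the MIC against staphylococci and pasteurellae; the gram-negative enteric strain was tested by conventional agar dilution instead.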

Shigella sonnei N9 = test: MIC, standard agar-dilution assay (Table V); assay type: cell-based
Method in brief: as §3

[14] = test system: Klebsiella pneumoniae X26; test: MIC, standard agar-dilution assay (Table V); assay type: cell-based; conditions: Klebsiella pneumoniae, X26
Protocol: as §2

[15] = test system: Staphylococcus aureus X1.1; test: MIC, standard agar-dilution assay (Table V); assay type: cell-based; conditions: Staphylococcus aureus
Protocol: as §2

[16] = test system: Staphylococcus epidermidis EPI2; test: MIC, standard agar-dilution assay (Table V); assay type: cell-based; conditions: Staphylococcus epidermidis; S. epidermidis EPI2; agar dilution; read-out: MIC
Protocol: as §2

[17] = test system: Streptococcus Group D X66; test: MIC, standard agar-dilution assay (Table V); assay type: cell-based
Protocol: as §2

[18] = test system: Staphylococcus epidermidis EPI1; test: MIC, standard agar-dilution assay (Table V); assay type: cell-based; conditions: Staphylococcus epidermidis; S. epidermidis EPI1; agar dilution; read-out: MIC
Protocol: as §2

[19] = test system: Staphylococcus aureus S13E; test: MIC, standard agar-dilution assay (Table V); assay type: cell-based; conditions: Staphylococcus aureus, S13E
Protocol: as §2

Streptococcus Group 9960 = test: MIC, standard agar-dilution assay (Table V); assay type: cell-based; conditions: GROUP9960
Protocol: as §2

[20] = test system: Klebsiella pneumoniae KAE; test: MIC, standard agar-dilution assay (Table V); assay type: cell-based; conditions: Klebsiella pneumoniae
Method in brief: as §3

[21] = test system: Staphylococcus aureus V41; test: MIC, standard agar-dilution assay (Table V); assay type: cell-based; conditions: Staphylococcus aureus, V41
Protocol: as §2

Escherichia coli EC14 = test: MIC, standard agar-dilution assay (Table V); assay type: cell-based; conditions: Escherichia coli
Method in brief: as §3

[22] = test system: Staphylococcus aureus X400; test: MIC, standard agar-dilution assay (Table V); assay type: cell-based; conditions: Staphylococcus aureus
Protocol: as §2

[23] = C203, sc, mice, subcutaneous, doses given 1 and 4 hours postinfection, read-out: ED50, Subcutaneous

Compound | MIC (Mycoplasma hyorhinis) [µg/mL] | MIC (Mycoplasma synoviae) [µg/mL] | MIC [2] [µg/mL] | MIC (Streptococcus sp. 80) [µg/mL] | MIC [3] [µg/mL] | MIC [4] [µg/mL] | MIC [5] [µg/mL] | MIC (Staphylococcus aureus) [µg/mL] | MIC [6] [µg/mL] | MIC (Mycoplasma gallisepticum) [µg/mL] | MIC [7] [µg/mL] | ED50 [9, 23] [mg/kg] | MIC (Serratia marcescens X99) [µg/mL] | MIC [10] [µg/mL] | MIC (Salmonella typhi 1335) [µg/mL] | MIC [11] [µg/mL] | MIC (Proteus rettgeri PR7) [µg/mL] | MIC (Proteus rettgeri C24) [µg/mL] | MIC (Escherichia coli N10) [µg/mL] | MIC (Shigella sonnei N9) [µg/mL] | other results
CCC1OC(=O)CC(O)C(C)C(OC2OC(C)C(O)C(N(C)C)C2O)C(CC=O)CC(C)C(=O)C=CC(C)=CC1CSc1ccccc1 (stereo not shown) [Compound 2, 23-Deoxy-23-(phenyl)thio-OMT] | 12.5 (≈ 18.1 µM) | 0.39 (≈ 0.565 µM) | 1.56 (≈ 2.26 µM) | 0.09 (≈ 0.13 µM) | 1.56 (≈ 2.26 µM) | 3.12 (≈ 4.52 µM) | 1.56 (≈ 2.26 µM) | 0.39 (≈ 0.565 µM) | 3.12 (≈ 4.52 µM) | 0.09 (≈ 0.13 µM) | 1.56 (≈ 2.26 µM) | 25.7 | 64 (≈ 92.8 µM) | 64 (≈ 92.8 µM) | 64 (≈ 92.8 µM) | 64 (≈ 92.8 µM) | 16 (≈ 23.2 µM) | 16 (≈ 23.2 µM) | 32 (≈ 46.4 µM) | 16 (≈ 23.2 µM) | MIC ([1]; 40G): 0.78 µg/mL (≈ 1.13 µM); MIC ([8]; P. multocida 22A, broth-dilution microtiter, read-out: MIC): 1.56 µg/mL (≈ 2.26 µM); ED50 ([9]; C203, po, read-out: ED50, Oral): > 100 mg/kg; MIC (Proteus morganii PR15; P. morganii PR15, agar dilution, read-out: MIC): 8 µg/mL (≈ 11.6 µM); MIC (Proteus inconstans PR33; PR33): 32 µg/mL (≈ 46.4 µM); MIC ([12]; X514): 64 µg/mL (≈ 92.8 µM); MIC ([13]; X68): 32 µg/mL (≈ 46.4 µM); MIC [14]: 2 µg/mL (≈ 2.9 µM); MIC ([15]; S. aureus X1.1, agar dilution, read-out: MIC): 0.125 µg/mL (≈ 0.181 µM); MIC [16]: 0.125 µg/mL (≈ 0.181 µM); MIC ([17]; Streptococcus Group D X66, agar dilution, read-out: MIC): 0.06 µg/mL (≈ 0.087 µM); MIC [18]: 0.125 µg/mL (≈ 0.181 µM); MIC [19]: 0.06 µg/mL (≈ 0.087 µM); MIC (Streptococcus Group 9960): 0.5 µg/mL (≈ 0.725 µM); MIC [20]: 64 µg/mL (≈ 92.8 µM); MIC [21]: 0.125 µg/mL (≈ 0.181 µM); MIC (Escherichia coli EC14; EC14): 32 µg/mL (≈ 46.4 µM); MIC ([22]; S. aureus X400, methicillin-resistant strain, agar dilution, read-out: MIC): 0.125 µg/mL (≈ 0.181 µM)
CCC1OC(=O)CC(O)C(C)C(OC2OC(C)C(O)C(N(C)C)C2O)C(CC=O)CC(C)C(=O)C=CC(C)=CC1CSc1nnc(C)s1 (stereo not shown) [Compound 3, 23-Deoxy-23-(5-methyl-1,3,4-thiadiazol-2-yl)thio-OMT] | 6.25 (≈ 8.78 µM) | 0.39 (≈ 0.548 µM) | 6.25 (≈ 8.78 µM) | 0.39 (≈ 0.548 µM) | 6.25 (≈ 8.78 µM) | 6.25 (≈ 8.78 µM) | 6.25 (≈ 8.78 µM) | 0.78 (≈ 1.1 µM) | 12.5 (≈ 17.6 µM) | 0.19 (≈ 0.267 µM) | 6.25 (≈ 8.78 µM) | 22.3 | > 128 | > 128 | > 128 | > 128 | 64 (≈ 89.9 µM) | 64 (≈ 89.9 µM) | 64 (≈ 89.9 µM) | 64 (≈ 89.9 µM) | MIC ([1]; P. multocida 40G, broth-dilution microtiter, read-out: MIC): 1.56 µg/mL (≈ 2.19 µM); MIC ([8]; 22A): 3.12 µg/mL (≈ 4.38 µM); ED50 ([9]; C203, mice, oral, doses given 1 and 4 hours postinfection, read-out: ED50, Oral): 81 mg/kg; MIC (Proteus morganii PR15; PR15): 64 µg/mL (≈ 89.9 µM); MIC (Proteus inconstans PR33; P. inconstans PR33, agar dilution, read-out: MIC): > 128 µg/mL; MIC ([12]; S. heidelberg X514, agar dilution, read-out: MIC): > 128 µg/mL; MIC ([13]; K. pneumoniae X68, agar dilution, read-out: MIC): > 128 µg/mL; MIC [14]: 4 µg/mL (≈ 5.62 µM); MIC ([15]; X1.1): 0.25 µg/mL (≈ 0.351 µM); MIC [16]: 0.25 µg/mL (≈ 0.351 µM); MIC [17]: 0.25 µg/mL (≈ 0.351 µM); MIC [18]: 0.125 µg/mL (≈ 0.176 µM); MIC [19]: 0.25 µg/mL (≈ 0.351 µM); MIC (Streptococcus Group 9960): 0.25 µg/mL (≈ 0.351 µM); MIC ([20]; K. pneumoniae KAE, agar dilution, read-out: MIC): > 128 µg/mL; MIC [21]: 0.25 µg/mL (≈ 0.351 µM); MIC (Escherichia coli EC14; E. coli EC14, agar dilution, read-out: MIC): 64 µg/mL (≈ 89.9 µM); MIC ([22]; X400): 0.25 µg/mL (≈ 0.351 µM)

Reference: US4459290A, “C-23-Modified derivatives of OMT, pharmaceutical compositions and method of use” (priority 1982, dated 1984)
